Test results as given in patent publication US20120015012A1, “COSMETIC COMPOSITION CONTAINING KETOGLUCONIC ACID DERIVATIVES” (SOLIANCE, priority 2009, published 2012).
Structures can show the parent of a compound that is named as a salt. Marks after values point to notes of the source that are not given here.

How the values were obtained:
[1] = test system: normal adult human dermal fibroblasts; assay: Neosynthesis of hyaluronic acid in normal adult human dermal fibroblasts cultured in monolayers (ELISA on culture media); format: cell-based; details: incubation 24 hours
Method: Confluent monolayers of normal human dermal fibroblasts were obtained by culturing cells obtained from abdominoplasty performed on a person. The fibroblasts were isolated by enzymatic digestion using Dispase and collagenase and were then cultured in DMEM (Dulbecco's Modified Eagle's Medium) and Ham's F12 medium in (1:1) ratio containing 10% of fetal calf serum, antibiotics and amphotericin B.
The reference activator used is transforming growth factor β (TGF-β) at a concentration of 10 ng/ml.
The fibroblasts were incubated for 24 hours at 37° C., under a humid atmosphere and 5% CO2, in the absence (culture medium only) or in the presence of the reference product, or of increasing concentrations of test products (10, 100 and 1000 μg/ml) for both products. The test products were dissolved directly in the culture medium.
At the end of the incubation period, the hyaluronic acid contained in the culture media was quantified using a sensitive and specific ELISA kit.
At the end of the incubation period, the proteins contained in the cellular lysates were quantified by Bradford's spectrocolorimetric method.
The results are given in the form of ng of hyaluronic acid per μg of total proteins of the cell lawn (mean±standard deviation, SD). The statistical significance of the differences observed between the “Control” and “Reference Product” conditions was evaluated by a Student test (Student t-test). The statistical significance of the differences observed between the “Control” and “Test Products” conditions was evaluated product by product, by a one-way analysis of variance (One Way ANOVA or One Way Anova on Ranks+), followed, when necessary, by a Holm-Sidak or Dunn's test (*: p<0.05).

[2] = test system: normal adult human dermal fibroblasts; assay: Neosynthesis of elastin in normal adult human dermal fibroblasts cultured in monolayers (spectrocolorimetric method on culture media); format: cell-based; details: incubation 96 hours; for increase in the neosynthesis of elastin: versus control
Method: Confluent monolayers of normal human dermal fibroblasts were obtained by culturing cells obtained from abdominoplasty performed on a person. The fibroblasts are isolated by enzymatic digestion using Dispase and collagenase and then cultivated in DMEM (Dulbecco's Modified Eagle's Medium) and Ham's F12 medium in (1:1) ratio containing 10% of fetal calf serum, antibiotics and amphotericin B.
The reference activator used is ascorbic acid at a concentration of 100 μg/ml.
The fibroblasts were incubated for 96 hours at 37° C., under humid atmosphere and 5% CO2, in the absence (culture medium only) or in the presence of the reference product, or of increasing concentrations of test products (10; 100 and 1000 μg/ml) for both products. The test products were dissolved directly in the culture medium.
At the end of the incubation time, the elastin contained in the culture media was quantified by a spectrocolorimetric method.
At the end of the incubation time, the proteins contained in the cellular lysates were quantified by Bradford's spectrocolorimetric method.
The results are given in the form of ng of elastin per μg of total proteins of the cell lawn (mean±standard deviation, SD). The statistical significance of the differences observed between the “Control” and “Reference Product” conditions was evaluated by a Student test (Student t-test). The statistical significance of the differences observed between the “Control” and “Test Products” conditions was evaluated product by product, by a one-way analysis of variance (One Way ANOVA or One Way Anova on Ranks+), followed, when necessary, by a Holm-Sidak or Dunn's test (*: p<0.05).

Compound	production of hyaluronic acid, % control ([1]; 10 μg/ml)	production of hyaluronic acid, mean value ([1]; 10 μg/ml)	production of hyaluronic acid, % control ([1]; 100 μg/ml)	production of hyaluronic acid, mean value ([1]; 100 μg/ml)	increase in the neosynthesis of hyaluronic acid ([1]; 100 μg/ml, versus control)	production of hyaluronic acid, % control ([1]; 1000 μg/ml)	production of hyaluronic acid, mean value ([1]; 1000 μg/ml)	increase in the neosynthesis of hyaluronic acid ([1]; 1000 μg/ml, versus control)	production of elastin, % control ([2]; 10 μg/ml)	production of elastin, mean value ([2]; 10 μg/ml)	production of elastin, % control ([2]; 100 μg/ml)	production of elastin, mean value ([2]; 100 μg/ml)	increase in the neosynthesis of elastin ([2]; 100 μg/ml)	production of elastin, % control ([2]; 1000 μg/ml)	production of elastin, mean value ([2]; 1000 μg/ml)	increase in the neosynthesis of elastin ([2]; 1000 μg/ml)	further results
O=C(O)C(=O)C(O)C(O)C(O)CO (stereo not shown) [2KO, calcium salt of 2-keto-(D)-gluconic acid]	101.2 % control	18.5 ng of hyaluronic acid per μg of total proteins	136.3 % control	25.0* ng of hyaluronic acid per μg of total proteins	36.3%	192.7 % control	35.3* ng of hyaluronic acid per μg of total proteins	92.7%	139.7 % control	12.6* ng of elastin per μg of total proteins	144.6 % control	13.1* ng of elastin per μg of total proteins	44.6%	135.8 % control	12.3* ng of elastin per μg of total proteins	35.8%	increase in the neosynthesis of elastin ([2]; 10 μg/ml): 39.7%
O=C([O-])C(O)C(O)C(O)C(=O)CO.[K+] (stereo not shown) [5KO, potassium salt of 5-keto-(D)-gluconic acid]	123.3 % control	22.6* ng of hyaluronic acid per μg of total proteins	144.9 % control	26.6* ng of hyaluronic acid per μg of total proteins	44.9%	144.0 % control	26.4* ng of hyaluronic acid per μg of total proteins	44.0%	104.8 % control	9.5 ng of elastin per μg of total proteins	118.9 % control	10.7 ng of elastin per μg of total proteins	18.9%	184.4 % control	16.7* ng of elastin per μg of total proteins	84.4%	increase in the neosynthesis of hyaluronic acid ([1]; 10 μg/ml, versus control): 23.3%
O=C1O[C@H]([C@@H](O)CO)C(O)=C1O [Ascorbic acid, ascorbic acid, reference compound]	–	–	–	–	–	–	–	–	–	–	140.3 % control	12.7*** ng of elastin per μg of total proteins	40.3%	–	–	–	–
TGF-β: reference activator, transforming growth factor β (TGF-β), used at 10 ng/ml [reference compound]	–	–	–	–	–	–	–	–	–	–	–	–	–	–	–	–	production of hyaluronic acid, % control ([1]; 10 ng/ml): 226.3 % control; production of hyaluronic acid, mean value ([1]; 10 ng/ml): 41.5*** ng of hyaluronic acid per μg of total proteins; increase in fibroblast production of hyaluronic acid ([1]; 10 ng/ml, versus control): 126.3%
